Where two headings read alike, the source gives them in different places.
Assays:
[1] = system: ABCC3 gene expression; assay: Rat DTEx microarray gene expression profiling in drug-treated female rat primary hepatocytes (FIG. 109): ABCC3; format: in vitro ADME
Description: (§1) Images were analysed using QuantArray software (GSI Lumonics Inc.).

[2] = system: ABCD2 gene expression; assay: Rat DTEx microarray gene expression profiling in drug-treated female rat primary hepatocytes (FIG. 109): ABCD2; format: in vitro ADME
Description: as §1

[3] = system: CYP3A1 gene expression; assay: Rat DTEx microarray gene expression profiling in drug-treated female rat primary hepatocytes (FIG. 109): CYP3A1; details: female rat primary hepatocytes treated with the drug
From the text: The total RNA component of the nucleic acid lysate was isolated according to the manufacturer's instructions.

[4] = female rat primary hepatocytes treated with the drug, FIG. 109

Row | Structure (SMILES) | effect on ABCC3 gene expression (normalized fluorescence intensity dendrogram plot) [1] | effect on ABCD2 gene expression (normalized fluorescence intensity dendrogram plot) [2] | effect on ABCC3 gene expression (normalized fluorescence intensity dendrogram plot) [1, 4] | effect on CYP3A1 gene expression (normalized fluorescence intensity dendrogram plot) [3] | effect on ABCD2 gene expression (normalized fluorescence intensity dendrogram plot) [2, 4]
1 | C[C@@H]1C[C@H]2[C@@H]3CCC4=CC(=O)C=C[C@]4(C)[C@@]3(F)[C@@H](O)C[C@]2(C)[C@@]1(O)C(=O)CO [DEX, dexamethasone] | induces gene expression | suppress | – | – | –
2 | CC(=O)[C@H]1[C@H](C#N)C[C@H]2[C@@H]3CC=C4C[C@@H](O)CC[C@]4(C)[C@H]3CC[C@@]21C [PCN] | – | – | suppresses gene expression | induce | suppress

Source: patent US20100160176A1, “RAT GENE […] OF DRUG TRANSPORTERS, CYTOCHROME P450s, TRANSFERASES AND NUCLEAR […] FOR PREDICTING DRUG EFFECTS” (NOAB BIOD[…]., priority 2008, published 2010)
